These results are taken from patent US20110217324A1, “INHIBITORS OF ANTIGEN PRESENTATION BY MHC CLASS II MOLECULES AND METHODS OF USE THEREOF” (priority 2007, published 2011).

Numbered stars: 1 amine (or outer) side, 2 acyl side, 3 side chain; on linkers, the order of the positions; unused ones are H or OH. Square brackets hold non-standard residues; d marks the D form. Peptide text beside a SMILES is read from it. * marks the point of attachment. X1 = O=C(C(Cc1ccc2[nH]c3ccccc3c2c1)N[*:1])[*:2]; X2 = O=C([C@H](Cc1cccc2[nH]cnc12)N[*:1])[*:2]; X8 = Nc1nc(C[C@H](N[*:1])C(=O)[*:2])c[nH]1; X5 = O=C(C(Cc1cccc2[nH]ccc12)N[*:1])[*:2]; Bta = N[C@@H](Cc1csc2ccccc12)C(=O)O; Gly(cPent) = N[C@H](C(=O)O)C1CCCC1; Igl = N[C@H](C(=O)O)C1Cc2ccccc2C1; hCit = NC(=O)NCCCC[C@H](N)C(=O)O; Tic = O=C(O)[C@@H]1Cc2ccccc2CN1; Cit = NC(=O)NCCC[C@H](N)C(=O)O; Chg = N[C@H](C(=O)O)C1CCCCC1; NHPhenethyl = c1ccc(CCN*)cc1; X4 = c1cc(CCN*)c2cc[nH]c2c1; X6 = c1ccc2[nH]c(CCN*)cc2c1; Pip = O=C(O)[C@@H]1CCCCN1; Morpholide = C1CN(*)CCO1; βAla = NCCC(=O)O; Sar = CNCC(=O)O

In the first assay the test system is animal models of autoimmune disease.
Experiment: not given
The conditions noted are these: in vivo; cited from earlier work.
In the case of a(Cha)AAAKTAAAAa-NH2, the “activity in animal models of autoimmune disease” value is “did not show activity”.

For a further assay, the target named is DRB5*0101 (Homo sapiens, UniProt P01903+Q30154).
Experiment: not given
The settings on record: DR2 haplotype; cited from earlier work.
In the case of “MBP (84-102): immunodominant myelin basic protein (84-102) peptide (DPGSRPHLIRLFSRDAPGR; Myelin basic protein; UniProt P02686 84-102, looked up, fragment)”, the “binding affinity to DRB5*0101 molecules” value was “bind with high affinity”.

The target of the next assay is DRB1*1501 (Homo sapiens, UniProt P01903+P01911).
Experiment: not given
The settings on record: DR2 haplotype; cited from earlier work.
Take “MBP (84-102): immunodominant myelin basic protein (84-102) peptide (DPGSRPHLIRLFSRDAPGR; Myelin basic protein; UniProt P02686 84-102, looked up, fragment)”: the “binding affinity to DRB1*1501 molecules” value is on record as “bind with high affinity”.

A further assay deals with DR molecules.
Experiment: not given
The conditions noted are these: cited from earlier work.
Take a(Cha)AAAKTAAAAa-NH2: the “binding to DR molecules” value is “binds DR molecules”.

A further assay deals with T cell proliferation.
Experiment: not given
The conditions noted are these: cited from earlier work.
In the case of a(Cha)AAAKTAAAAa-NH2, the “suppression of T cell proliferation in response to protein antigens” value is given as “did not supress T cell proliferation”.

Another assay has as its target T1, MHC DR2 (DRB1*1501/DRA*0101) (Homo sapiens, UniProt P01903+P01911).
T1 construct: endogenous in cells; host or cells: EBV homozygous (B lymphoblastoid) cell lines
Description: HLA II Binding Assay (competition with biotinylated reference peptide). The conditions noted are these: purified HLA-DR, biotinylated reference compound for DRB1*1501, 37° C. 24 h to 72 h; read-out: Inhibition of peptide binding IC50 (against MHC DR2 (DRB1*1501/DRA*0101)). On the procedure: EBV homozygous cell lines are used as sources of human HLA class II molecules. […] The supernatant from lysed cells after centrifugation (100,000 g for 1 h) is applied to Sepharose 4B and protein A-Sepharose 4B columns and then to the specific antibody column. […] Fractions are immediately neutralized to pH 7 with 2 mM Tris-HCl (pH 6.8) and extensively dialyzed against 1 mM n-dodecyl β-D-maltoside, 150 mM NaCl, 10 mM phosphate (pH 7) buffer.
Samples (100 μl per well) are incubated in 96-wells polypropylene plates at 37° C. for 24 h to 72 h. After neutralization with 50 μl of 450 mM Tris HCl pH 7.5, 0.003% thimerosal, 0.3% BSA, 1 mM n-dodecyl β-D-maltoside buffer, samples are applied to 96-well maxisorp ELISA plates previously coated with 10 μg/ml L243 Mab and saturated with 100 mM Tris HCl pH=7.5, 0.3% BSA, and 0.003% thimerosal buffer. Samples are allowed to bind to the antibody-coated plates for 2 h at room temperature. Bound biotinylated compound is detected by incubating streptavidin-alkaline phosphatase conjugate, and after washings, by the addition of 4-methylumbelliferyl phosphate substrate. […] Maximal binding is determined by incubating the biotinylated peptide with the MHC class II molecule in the absence of competitor. Binding specificity is assessed by adding an excess of non-biotinylated peptide.
As to `CC(=O)N[C@H](C(=O)N[C@H](C(=O)N[C@@H](CCCNC(=N)N)C(=O)N1Cc2ccccc2C[C@H]1C(=O)N[C@@H](Cc1ccccc1)C(=O)N1CCOCC1)C1CCCCC1)C(C)C` [AcV(Chg)R(Tic)F-CO(morpholine)] (Ac-V[Chg]R[Tic]F-Morpholide), the IC50 was 10 to 100 nM.
Still for that read-out and setting: in the case of `CC(=O)N[C@H](C(=O)N[C@H](C(=O)N[C@@H](CCCNC(=N)N)C(=O)N1Cc2ccccc2C[C@H]1C(=O)NCCc1cccc2[nH]ccc12)C1CCCCC1)C(C)C` [AcV(Chg)R(Tic)(4-ethylaminoindole)] (Ac-V[Chg]R[Tic]-X4) it was 100 to 1000 nM.
`CC(C)[C@H](NC(=O)CCN)C(=O)N[C@H](C(=O)N[C@@H](CCCNC(=N)N)C(=O)N1Cc2ccccc2C[C@H]1C(=O)N[C@@H](Cc1ccccc1)C(N)=O)C1CCCCC1` [(NH2-Beta Ala)V(Chg)R(Tic)F] (H-[βAla]V[Chg]R[Tic]F-NH2): the IC50 was 1 to 10 nM.
As for `CC(=O)N[C@H](C(=O)N[C@H](C(=O)N[C@@H](Cc1c[nH]c(N)n1)C(=O)N1Cc2ccccc2C[C@H]1C(=O)N[C@@H](Cc1ccccc1)C(N)=O)C1CCCCC1)C(C)C` [AcV(Chg)(2-amino His)(Tic)F] (Ac-V[Chg][X8][Tic]F-NH2), the IC50 was 10 to 100 nM.
With `CC(C)[C@H](NC(=O)CCN)C(=O)N[C@H](C(=O)N[C@@H](Cc1ccccc1)C(=O)N[C@@H](Cc1ccccc1)C(=O)N[C@@H](Cc1ccccc1)C(N)=O)C1CCCCC1` [(NH2-Beta Ala)V(Chg)FFF] (H-[βAla]V[Chg]FFF-NH2), the IC50 fell in the range of 100 to 1000 nM.
`CC(=O)N[C@H](C(=O)N[C@H](C(=O)N[C@@H](CCCNC(=N)N)C(=O)N1Cc2ccccc2C[C@H]1C(=O)N[C@@H](Cc1cccc2[nH]cnc12)C(N)=O)C1CCCCC1)C(C)C` [AcV(Chg)R(Tic)(4-benzimidazole)] (Ac-V[Chg]R[Tic][X2]-NH2): the IC50 was 10 to 100 nM.
On to `CC(=O)N[C@H](C(=O)N[C@H](C(=O)N[C@@H](CCCNC(=N)N)C(=O)N1Cc2ccccc2C[C@H]1C(=O)N[C@@H](Cc1ccccc1)C(N)=O)C1CCCC1)C(C)C` [AcV(Cpg)R(Tic)F] (Ac-V[Gly(cPent)]R[Tic]F-NH2), for which the IC50 lay within 1 to 10 nM.
On the same count and under the same terms, the result for `CNCC(=O)N[C@H](C(=O)N[C@H](C(=O)N[C@@H](CCCNC(=N)N)C(=O)N1Cc2ccccc2C[C@H]1C(=O)N[C@@H](Cc1ccccc1)C(N)=O)C1CCCCC1)C(C)C` [(NH2-Sar)V(Chg)R(Tic)F] (H-[Sar]V[Chg]R[Tic]F-NH2) reads 1 to 10 nM; that for `CNCC(=O)N[C@H](C(=O)N[C@H](C(=O)N[C@@H](CCCNC(N)=O)C(=O)N1Cc2ccccc2C[C@H]1C(=O)N[C@@H](Cc1ccccc1)C(N)=O)C1CCCCC1)C(C)C` [(NH2-Sar)V(Chg)(Cit)(Tic)F] (H-[Sar]V[Chg][Cit][Tic]F-NH2), 1 to 10 nM; that for `CC(=O)N[C@H](C(=O)N[C@H](C(=O)N[C@@H](CCCNC(=N)N)C(=O)N1Cc2ccccc2C[C@H]1C(=O)NC(Cc1ccc2[nH]c3ccccc3c2c1)C(N)=O)C1CCCCC1)C(C)C` (some centres unmarked) [AcV(Chg)R(Tic)-(3′-Carbazolyl Ala)] (Ac-V[Chg]R[Tic][X1]-NH2), 100 to 1000 nM.
On to `CC(C)[C@H](NC(=O)CN)C(=O)N[C@H](C(=O)N[C@@H](CCCNC(N)=O)C(=O)N1Cc2ccccc2C[C@H]1C(=O)N[C@@H](Cc1ccccc1)C(N)=O)C1CCCCC1` [(NH2-Gly)V(Chg)(Cit)(Tic)F] (H-GV[Chg][Cit][Tic]F-NH2), for which the IC50 was 1 to 10 nM.
In the case of `CC(C)[C@H](NC(=O)[C@@H](N)Cc1csc2ccccc12)C(=O)N[C@H](C(=O)N[C@@H](CCCNC(=N)N)C(=O)N1Cc2ccccc2C[C@H]1C(=O)N[C@@H](Cc1ccccc1)C(N)=O)C1CCCCC1` [(NH2-BTA)V(Chg)R(Tic)F] (H-[Bta]V[Chg]R[Tic]F-NH2), the IC50 is 10 to 100 nM.
With `CC(=O)N[C@H](C(=O)N[C@H](C(=O)N[C@@H](Cc1c[nH]cn1)C(=O)N1Cc2ccccc2C[C@H]1C(=O)N[C@@H](Cc1ccccc1)C(N)=O)C1CCCCC1)C(C)C` [AcV(Chg)H(Tic)F] (Ac-V[Chg]H[Tic]F-NH2), the IC50 lay in the range of 10 to 100 nM.
Take `CC(=O)N[C@H](C(=O)N[C@H](C(=O)N[C@@H](C)C(=O)N1Cc2ccccc2C[C@H]1C(=O)N[C@@H](Cc1ccccc1)C(N)=O)C1CCCCC1)C(C)C` [AcV(Chg)A(Tic)F] (Ac-V[Chg]A[Tic]F-NH2): the IC50 is 10 to 100 nM.
The same measure, in the same setting: in the case of `CC(=O)N[C@H](C(=O)N[C@H](C(=O)N[C@@H](CCCNC(=N)N)C(=O)N1Cc2ccccc2C[C@H]1C(=O)N[C@@H](Cc1ccccc1)C(=O)N1CCOCC1)C1Cc2ccccc2C1)C(C)C` [AcV(Indgly)R(Tic)F-CO(morpholine)] (Ac-V[Igl]R[Tic]F-Morpholide) it was 10 to 100 nM; in that of `CC(=O)N[C@H](C(=O)N[C@H](C(=O)N[C@@H](CCCNC(=N)N)C(=O)N1Cc2ccccc2C[C@H]1C(=O)N[C@@H](Cc1ccccc1)C(N)=O)C1Cc2ccccc2C1)C(C)C` [AcV(Indgly)R(Tic)F] (Ac-V[Igl]R[Tic]F-NH2), 10 to 100 nM; in that of `CC(=O)N[C@H](C(=O)N[C@H](C(=O)N[C@@H](CCCNC(=N)N)C(=O)N1CCCC[C@H]1C(=O)N[C@@H](Cc1ccccc1)C(N)=O)C1CCCCC1)C(C)C` [AcV(Chg)R(homo Pro)F] (Ac-V[Chg]R[Pip]F-NH2), 10 to 100 nM.
As to `CC(=O)N[C@H](C(=O)N[C@H](C(=O)N[C@@H](CCCNC(=N)N)C(=O)N1Cc2ccccc2C[C@H]1C(=O)NCCc1cc2ccccc2[nH]1)C1CCCCC1)C(C)C` [AcV(Chg)R(Tic)(2-ethylaminoindole)] (Ac-V[Chg]R[Tic]-X6), the IC50 lay in the range of 100 to 1000 nM.
Still for that read-out and setting: the result for `CC(=O)N[C@H](C(=O)N[C@H](C(=O)N[C@@H](CCCNC(=N)N)C(=O)N1Cc2ccccc2C[C@H]1C(=O)NCCc1ccccc1)C1CCCCC1)C(C)C` [AcV(Chg)R(Tic)(phenethylamide)] (Ac-V[Chg]R[Tic]-NHPhenethyl) reads 100 to 1000 nM; that for `CC(=O)N[C@H](C(=O)N[C@H](C(=O)N[C@@H](CCCNC(=N)N)C(=O)N1Cc2ccccc2C[C@H]1C(=O)NC(Cc1cccc2[nH]ccc12)C(N)=O)C1CCCCC1)C(C)C` (some centres unmarked) [AcV(Chg)R(Tic)-(4′-Indolyl Ala)] (Ac-V[Chg]R[Tic][X5]-NH2), 1 to 10 nM; that for `CC(=O)N[C@H](C(=O)N[C@H](C(=O)N[C@@H](CCCCNC(N)=O)C(=O)N1Cc2ccccc2C[C@H]1C(=O)N[C@@H](Cc1ccccc1)C(N)=O)C1CCCCC1)C(C)C` [AcV(Chg)(homo Cit)(Tic)F] (Ac-V[Chg][hCit][Tic]F-NH2), 1 to 10 nM.
